Holding throughout (type): in vivo
Assay [1] deals with larvae of the green rice leaf-hopper (Nephotettix cincticeps). The assay can be described thus: Nephotettix test. Conditions: active compound 0.1 %, rice seedlings (Oryza sativa) dipped. Here is the method:
(§1) Nephotettix Test [table] To produce a suitable preparation of active compound, 1 part by weight of active compound is mixed with the stated amounts of solvent and emulsifier, and the concentrate is diluted with water to the desired concentration. Rice seedlings (Oryza sativa) are treated by being dipped into the preparation of active compound of the desired concentration and are populated with larvae of the green rice leaf-hopper (Nephotettix cincticeps) while the leaves are still moist. After the desired period of time, the kill in % is determined. 100% means that all leaf-hoppers have been killed; 0% means that none of the leaf-hoppers have been killed.

In assay [2] the test system is larvae of the mustard beetle (Phaedon cochleariae). The assay can be described thus: Phaedon larvae test. As to conditions: concentration of active compound 0.1 %, cabbage leaves (Brassica oleracea) dipped. As to the method:
as §1, with “Phaedon larvae” for “Nephotettix”, “Cabbage leaves (Brassica oleracea)” for “Rice seedlings (Oryza sativa)”, “mustard beetle (Phaedon cochleariae)” for “green rice leaf-hopper (Nephotettix cincticeps)”, “[…]” for “leaf-hoppers”

Assay [3] relates to peach aphids (Myzus persicae). The assay can be described thus: Myzus test. As to conditions: concentration of active compound 0.1 %, infested cabbage leaves (Brassica oleracea) dipped. As to the method:
Myzus Test [table] To produce a suitable preparation of active compound, 1 part by weight of active compound is mixed with the stated amounts of solvent and emulsifier, and the concentrate is diluted with water to the desired concentration. Cabbage leaves (Brassica oleracea) which are heavily infested by peach aphids (Myzus persicae) are treated by being dipped into the preparation of active compound of the desired concentration. After the desired period of time, the kill in % is determined. 100% means that all aphids have been killed; 0% means that none of the aphids have been killed.

In the case of `COC1CCC2(CC1)NC(=O)C(c1c(C)cc(-c3ccc(Cl)cc3)cc1Cl)=C2O` (centres unmarked) [drawing 172], in assay [1], the “Kill in % after 6 days” value is 100%.
Turning to `CCOC1CCC2(CC1)NC(=O)C(c1c(C)cc(-c3ccc(Cl)cc3)cc1C)=C2O` (centres unmarked) [drawing 175], the “Kill in % after 7 days” value in assay [2] was 100%.
Take `CCOC1CCC2(CC1)NC(=O)C(c1c(C)cc(-c3ccc(Cl)cc3)cc1C)=C2O` (centres unmarked) [drawing 171]: the “Kill in % after 6 days” value in assay [3] is reported as 95%.
For `COC1CCC2(CC1)NC(=O)C(c1c(C)cc(-c3ccc(Cl)cc3)cc1Cl)=C2O` (centres unmarked) [drawing 174], in assay [2], the “Kill in % after 7 days” value is on record as 100%.
In the case of `CCOC1CCC2(CC1)NC(=O)C(c1c(C)cc(-c3ccc(Cl)cc3)cc1C)=C2O` (centres unmarked) [drawing 173], the “Kill in % after 6 days” value in assay [1] is 100%.

The values are drawn from patent US7288676B2, “Arylphenyl-substituted cyclic ketoenols” (Bayer CropScience AG, priority 1998, dated 2007).
